# Results from PMC12495306 (RSC Medicinal Chemistry, 2025).
# Tests used:
# HEK293 cells = experiment: Cell viability / cytotoxicity assay; format: cell-based, human; settings: CellTiter-Glo, 18 h
# ARα2C [1] = biological target: T1, ARα2C (Homo sapiens, UniProt P18825); experiment: GPCR Tango β-arrestin recruitment assay, ARα2C transfected HEK293; format: cell-based; settings: for activation of ARα2C: agonist mode; for antagonism of ARα2C: in the presence of 300 nM norepinephrine
# T1 sequence (P18825 1-462): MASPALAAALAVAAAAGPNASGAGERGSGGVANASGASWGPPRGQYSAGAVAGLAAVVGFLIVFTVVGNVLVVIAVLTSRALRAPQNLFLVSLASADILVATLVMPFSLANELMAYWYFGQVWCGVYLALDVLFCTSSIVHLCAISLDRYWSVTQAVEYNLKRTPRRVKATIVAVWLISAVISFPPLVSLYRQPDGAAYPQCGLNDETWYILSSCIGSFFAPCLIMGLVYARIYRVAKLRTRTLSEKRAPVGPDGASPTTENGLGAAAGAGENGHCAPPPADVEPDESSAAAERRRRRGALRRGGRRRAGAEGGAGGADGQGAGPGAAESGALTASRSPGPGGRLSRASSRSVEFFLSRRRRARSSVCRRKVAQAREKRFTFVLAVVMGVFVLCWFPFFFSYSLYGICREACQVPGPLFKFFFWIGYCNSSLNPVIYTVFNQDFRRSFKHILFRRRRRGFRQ
# [2] = tested on: Female Swiss Webster mice; experiment: Rotarod sensorimotor study; format: in vivo; settings: 40 mg kg−1 oral; measured after 10, 30 and 60 minutes; n = 8
# ARα2C [3] = biological target: T1, ARα2C; experiment: ARα2C radioligand; format: binding
# [4] = Pharmacokinetic study, blood and brain; format: in vivo, mice; settings: 40 mg kg−1 oral
# [5] = tested on: Female Swiss Webster mice; experiment: Open field test; format: in vivo; settings: 40 mg kg−1 oral; 40 min after administration; n = 6
# ARα2A [6] = biological target: T2, ARα2A (Homo sapiens, UniProt P08913); experiment: ARα2A radioligand; format: binding
# T2 sequence (P08913 1-465): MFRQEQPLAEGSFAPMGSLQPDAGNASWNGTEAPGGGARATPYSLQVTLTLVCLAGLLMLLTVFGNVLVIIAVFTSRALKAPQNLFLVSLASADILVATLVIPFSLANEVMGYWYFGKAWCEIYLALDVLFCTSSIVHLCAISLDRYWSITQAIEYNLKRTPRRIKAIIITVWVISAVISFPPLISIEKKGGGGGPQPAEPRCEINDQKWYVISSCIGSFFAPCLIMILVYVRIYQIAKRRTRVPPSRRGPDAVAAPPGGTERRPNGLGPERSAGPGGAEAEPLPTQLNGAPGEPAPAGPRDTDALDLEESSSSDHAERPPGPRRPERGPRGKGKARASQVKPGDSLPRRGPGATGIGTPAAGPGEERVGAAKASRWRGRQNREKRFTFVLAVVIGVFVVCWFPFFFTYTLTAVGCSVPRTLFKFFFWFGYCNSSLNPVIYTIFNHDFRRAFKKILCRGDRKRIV
# ARα2A [7] = biological target: T2, ARα2A; experiment: GPCR Tango β-arrestin recruitment assay, ARα2A transfected HEK293; format: cell-based; settings: for activation of ARα2A: agonist mode; for antagonism of ARα2A: in the presence of 300 nM norepinephrine
# ARα2B [8] = biological target: T3, ARα2B (Homo sapiens, UniProt P18089); format: cell-based; settings: for activation of ARα2B: agonist mode; for antagonism of ARα2B: in the presence of 300 nM norepinephrine
# T3 sequence (P18089 1-450): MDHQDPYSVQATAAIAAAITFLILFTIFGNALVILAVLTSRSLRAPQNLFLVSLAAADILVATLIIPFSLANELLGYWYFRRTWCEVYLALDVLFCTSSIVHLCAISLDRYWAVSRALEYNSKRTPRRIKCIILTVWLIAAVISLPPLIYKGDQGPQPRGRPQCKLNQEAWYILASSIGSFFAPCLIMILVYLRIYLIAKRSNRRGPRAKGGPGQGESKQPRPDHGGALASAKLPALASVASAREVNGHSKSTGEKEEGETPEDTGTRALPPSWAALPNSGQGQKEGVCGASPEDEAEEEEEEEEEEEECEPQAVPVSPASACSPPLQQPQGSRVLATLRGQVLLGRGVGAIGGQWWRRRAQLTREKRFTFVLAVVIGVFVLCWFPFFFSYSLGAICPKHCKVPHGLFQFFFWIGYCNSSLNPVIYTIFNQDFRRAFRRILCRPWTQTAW
# ARα2B [9] = biological target: T3, ARα2B; experiment: ARα2B radioligand; format: binding; settings: for inhibition at 10 µM: read-out: ARα2B binding (% inhibition at 10 μM)
# mice [10] = settings: cited from earlier work
# mice [11] = settings: cited from earlier work; remark: listed apart in the source
# [12] = ARα2A binding Ki, competition with 3H-Rauwolscinein, concentration response
Compound,Cytotoxicity LD50 (HEK293 cells) [µM],activation of ARα2C (ARα2C [1]),antagonism of ARα2C (ARα2C [1]),sensorimotor inhibition on rotarod [2],Ki (ARα2C [3]) [µM],sedation (open field test) [5],Ki (ARα2A [6]; [12]) [µM],activation of ARα2A (ARα2A [7]),antagonism of ARα2A (ARα2A [7]),activation of ARα2B (ARα2B [8]),antagonism of ARα2B (ARα2B [8]),Ki (ARα2B [9]) [µM],inhibition at 10 µM (ARα2B [9]) [%],further results
"CC1N=C(c2ccccc2F)c2cc(Nc3ccccc3)ccc2NC1=O (stereo not drawn) [Compound 2, 7-Anilino-5-(2-fluorophenyl)-3-methyl-1,3-dihydro-2H-1,4-benzodiazepin-2-one]",100 ± 19,did not activate,antagonized,did not observe any sensorimotor inhibition,1.13,no sedation,3.93,did not activate,antagonized,did not activate,antagonized,0.511,90,"oral availability ([4]; mice): orally available; blood : brain ratios ([4]; 10, 30, 60 min): increased over time; concentration in blood and brain ([4]; as early as 10 min, n = 4): appreciable concentration of 2 in blood and brain that exceeded the affinity of 2 for the target receptor; Ki (ARα2A [6]; ARα2A Ki, rounded value): 3.9 µM; selectivity for α2B over the α2A subtype (ARα2B [9]; from Ki values): 7.7 fold; selectivity for α2B over the α2C subtype (ARα2B [9]; from Ki values): 2.2 fold"
"COc1ccccc1Nc1ccc2c(c1)C(c1ccccc1F)=NC(C)C(=O)N2 (stereo not drawn) [Compound 17, 5-(2-Fluorophenyl)-7-(2-methoxyanilino)-3-methyl-1,3-dihydro-2H-1,4-benzodiazepin-2-one]",148 ± 12,did not activate,antagonized,did not observe any sensorimotor inhibition,0.738,no sedation,2.05,did not activate,antagonized,did not activate,antagonized,0.607,91,–
CCC1(c2cnc[nH]2)Cc2ccccc2C1 [atipamezole],–,–,–,–,–,–,–,–,–,–,–,–,–,locomotion (OFT) (mice [10]; 1 mg kg−1): did not modulate locomotion
Cc1cccc([C@H](C)c2cnc[nH]2)c1C [dexmedetomidine],–,–,–,–,–,–,–,–,–,–,–,–,–,ability of mice to stay on the rotating rod (mice [11]; i.p. doses of higher than 10 μg kg−1): reduced the ability of mice to stay on the rotating rod; activity scores (OFT) (mice [10]; 30 μg kg−1 (s.c.)): significantly reduced the activity scores
Cc1ccc(N(CC2=NCCN2)c2cccc(O)c2)cc1 [phentolamine],–,–,–,–,–,–,–,–,–,–,–,–,–,ability of mice to complete a rotarod exercise (mice [11]; 4 mg kg−1 (i.p.)): do not usually alter the ability of mice to complete a rotarod exercise
